# What was measured:
# [1] = system: Copepodids (juvenile sea lice stage of Lepeophtheirus salmonis); assay: Juvenile sea lice contact assay; details: Lepeophtheirus salmonis, ~24 h, read-out: Sea lice inhibition (% of dead+damaged copepodids); for inhibition at 0.01 µM: 10 nM in seawater
# Description: Copepodids (juvenile sea lice stage of Lepeophtheirus salmonis) were exposed to seawater spiked with declining concentrations of a test compound (dissolved in a DMSO sea-water mixture). Sea lice inhibition (% of dead+damaged copepodids) was assessed after approximately 24 hours of continuous exposure. The vitality of used parasites was confirmed in a negative (solvent) control group.
# Lepeophtheirus salmonis [2] = assay: Salmon - in vivo efficacy against sea lice using gavage administration; details: 5 mg/kg once by gavage, counted around day 28; for therapeutic efficacy against juvenile sea lice (% reduction vs control): day -3 infestation
# Description: Salmon (Salmo solar) were treated once orally by gavage at a dose of 5 mg/kg bodyweight per fish (Day 0). As formulation DMSO 5%/fish oil 95% was used. Salmon of the negative control group received only the excipients of the formulation.
# The fish were infested with Lepeophtheirus salmonis copepodids twice before treatment (i.e., around day −28 and day −3) and once after treatment (i.e., day 17).
# Around day 28 (end of animal phase), fish were euthanized, and lice on each fish were classified ((pre-)adult or juvenile stage) and counted. […] Efficacy is expressed as a % reduction of sea lice in treated groups versus a control group, using the Abbott's formula.
# [3] = system: juvenile soft ticks (Ornithodoros moubata); assay: Guinea pig - efficacy against argaside tick; type: in vivo
# In short: (§1)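 Guinea pigs given 5 mg/kg test compound orally (gavage) or s.c. in 10% DMF/emulsifier plus 90% water for injection, with local co-infestations of Ornithodoros moubata juveniles and Cimex lectularius at several post-treatment times. Engorged parasites scored dead/damaged about 24 h after collection; % inhibition versus pretreatment baseline by modified Schneider-Orelli formula.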
# Lepeophtheirus salmonis [4] = assay: Salmon - in vivo efficacy against sea lice using gavage administration; details: po, 168 h, read-out: therapeutic efficacy against (pre-)adult sea lice (% reduction vs control), salmon, 5 mg/kg once by gavage, day -28 infestation, counted day 7
# [5] = system: bed bugs (Cimex lectularius); assay: Guinea pig - efficacy against bed bug; type: in vivo
# In short: as §1
# [6] = system: Rhipicephalus microplus tick larvae; assay: Tick larvae contact assay; details: ~3 min immersion, assessed ~24 h after, read-out: Tick inhibition (% of damage+dead ticks)
# Description: Tick larvae (Rhipicephalus microplus) were immersed for approximately 3 minutes in declining concentrations of a test compound (dissolved in a DMSO-emulsifier-deionized water mixture). Tick inhibition (% of damage+dead ticks per test concentration) was assessed approximately 24 hours after contact exposure. The vitality of used parasites was confirmed in negative control groups (i.e. an untreated control and a solvent control).
# [7] = system: Mobile stages of sea lice (pre-adults, adults of Lepeophtheirus salmonis); assay: Adult sea lice contact assay; details: pre-adults/adults, assessed after ~1 and 24 h, read-out: EC50 (sea lice inhibition, dead+damaged)
# Description: Mobile stages of sea lice (i.e., pre-adults, adults of Lepeophtheirus salmonis) were exposed to seawater spiked with declining concentrations of a test compound (dissolved in a PEG sea-water mixture). Sea lice inhibition (% of dead+damaged sea lice) was assessed after approximately 1 and 24 hours of continuous exposure in comparison to a negative (solvent) control group.
# [8] = system: Adult fleas (Ctenocephalides felis); assay: Flea feeding assay; details: 1 ppm in blood, ~48 h membrane feeding, read-out: flea inhibition (% of dead+damaged fleas)
# Description: Adult fleas (Ctenocephalides felis) of defined age were fed on artificial membranes with blood spiked with declining concentrations of a test compound (dissolved in a DMSO-emulsifier-blood mixture). After approximately 48 hours of continuous feeding, flea inhibition (i.e., % of dead+damaged fleas per test concentration) was assessed. The vitality of used parasites was confirmed in negative control groups (i.e., an untreated control and a solvent control).
# [9] = system: Ctenocephalides felis fleas; assay: Dog - efficacy against fleas; type: in vivo; details: for therapeutic efficacy against fleas (active = efficacy ≥80 percent): D2
# Description: (§2) Beagle dogs were infested (whole body) with 80 Ctenocephalides felis fleas and 50 Rhipicephalus sanguineus or Haemaphysalis elliptica ticks (sex ratio 1:1) two days before the treatment day (Day 0), and repeatedly thereafter. Dogs of treatment groups were treated with 10 mg/kg bodyweight of a test compound orally (compound weighed in gelatin capsule), topically (spot-on, DMA 92%/DEET 8%) or subcutaneously (PEG 200 90%/water for injection 10%). Dogs of the negative control group received only an empty gelatin capsule orally and the spot-on formulation excipients topically.
# (§3) Compounds with efficacy ≥80 percent were found active.
# [10] = system: Rhipicephalus sanguineus or Haemaphysalis elliptica ticks; assay: Dog - efficacy against ticks; type: in vivo; details: for therapeutic efficacy against ticks (active = efficacy ≥80 percent): D2
# Description: as §2, §3
# Rhipicephalus microplus = assay: Cattle - efficacy against one-host tick; type: in vivo; details: 1 mg/kg pour on in Imwitor 988+Miglyol 840
# Description: Cattle were infested (whole body) with up to 3000 Rhipicephalus microplus larvae two or three times per week before and after the treatment day (Day 0). Cattle of treatment groups were treated subcutaneously or topically (spray or pour-on) at a dose of 1 mg/kg bodyweight of a test compound. As subcutaneous formulation either 2-pyrrolidon 50%/Tween 80 50% or NMP 60%/PEG300 40% was used. As topical formulation either a spray solution (DMF/Emulsifier 2%/tap water 98%) (Compound 4) or a DMA 92%/DEET 8% pour-on solution (all other compounds) or a pour-on solution containing Imwitor 988 (20%)+Miglyol 840 (QS) (Compound 453 and Compound 466) or a pour-on solution containing Miglyol 840 (QS) (Compound 453) was used. Cattle of the negative control group received only the formulation excipients of the respective administration route.
# Fully engorged female ticks dropping from cattle were collected daily after treatment and counted in treatment and control groups. Efficacy was expressed using the standard ADEQ analysis method (ADEQ calculation in accordance with WAAVP guidelines for evaluating the efficacy of acaricides against ticks on ruminants; Veterinary parasitology 136 (2006) 29-43). Compounds with efficacy ≥80 percent were found active/effective. Onset of efficacy means the first Day with efficacy ≥80 percent. Duration of efficacy means the last Day with efficacy ≥80 percent.
# [11] = 5 mg/kg subcutaneous, after 7 days
# [12] = 5 mg/kg, at least until Day 10, both administration routes (oral, subcutaneous)
SMILES,inhibition at 0.01 µM [1],therapeutic efficacy against juvenile sea lice (% reduction vs control) (Lepeophtheirus salmonis [2]),"activity against tick nymphs (≥80% inhibition, killed+damaged) ([3]; 5 mg/kg oral, Day 0)","activity against tick nymphs (≥80% inhibition, killed+damaged) ([3]; 5 mg/kg subcutaneous, Day 0)",inhibition in vivo at 5 mg/kg (Lepeophtheirus salmonis [4]),"activity against bed bugs (≥80% inhibition, killed+damaged) ([5]; 5 mg/kg oral, Day 0)","activity against bed bugs (≥80% inhibition, killed+damaged) ([5]; 5 mg/kg subcutaneous, Day 0)",EC50 [7],"activity against tick nymphs (≥80% inhibition, killed+damaged) [3, 11]","activity against bed bugs (≥80% inhibition, killed+damaged) ([5]; 5 mg/kg oral, after 7 days)","activity against bed bugs (≥80% inhibition, killed+damaged) [5, 11]",further results
O=C(Nc1ncc(F)cc1F)c1cc(NC(=O)[C@H]2[C@H](c3ccc(F)c(Cl)c3)C2(Cl)Cl)ccc1Cl [Compound 89],100%,100%,immediate activity,immediate activity,100%,immediate activity,immediate activity,≤ 10 nM,–,–,–,inhibition at 49 µM ([6]; 49 μM): 80%; inhibition at 388 µM ([6]; 388 μM): 80%; inhibition at 100 ppm ([6]; 100 ppm): 80%; inhibition at 1 ppm [8]: 80%
O=C(Nc1c(F)cc(F)cc1F)c1cc(NC(=O)[C@H]2[C@H](c3cc(Cl)cc(Cl)c3)C2(Cl)Cl)ccc1Cl [Compound 449],100%,80%,immediate activity,immediate activity,80%,immediate activity,immediate activity,10 to 25 nM,activity,–,–,–
O=C(Nc1cnc(F)cc1F)c1cc(NC(=O)[C@H]2[C@H](c3cc(Cl)cc(Cl)c3)C2(Cl)Cl)ccc1Cl [Compound 455],100%,100%,immediate activity,immediate activity,100%,immediate activity,immediate activity,≤ 10 nM,–,–,–,"duration of efficacy, subcutaneous compared with oral administration ([3]; 5 mg/kg, ticks and bed bugs): longer duration of efficacy"
O=C(Nc1c(F)ccnc1F)c1cc(NC(=O)[C@H]2[C@H](c3cc(Cl)cc(Cl)c3)C2(Cl)Cl)ccc1Cl [Compound 456],100%,100%,immediate activity,immediate activity,80%,immediate activity,immediate activity,≤ 10 nM,–,–,–,prophylactic efficacy at re-infestation on Day 17 (% reduction vs control) (Lepeophtheirus salmonis [2]): 80%
O=C(Nc1ncc(F)cn1)c1cc(NC(=O)[C@H]2[C@H](c3cc(Cl)cc(Cl)c3)C2(Cl)Cl)ccc1Cl [Compound 460],100%,100%,immediate activity,immediate activity,100%,immediate activity,immediate activity,≤ 10 nM,–,activity,activity,–
O=C(Nc1cnc(F)cc1F)c1cc(NC(=O)[C@H]2[C@H](c3cc(Cl)c(Cl)c(Cl)c3)C2(Cl)Cl)ccc1Cl [Compound 466],–,80%,immediate activity,immediate activity,80%,immediate activity,immediate activity,≤ 10 nM,activity,activity,activity,"efficacy against fleas in dogs (conclusion) ([9]; 10 mg/kg): therapeutic efficacy; therapeutic efficacy against fleas (active = efficacy ≥80 percent) ([9]; 10 mg/kg oral): active; therapeutic efficacy against fleas (active = efficacy ≥80 percent) ([9]; 10 mg/kg topical spot-on): active; efficacy against ticks in dogs (conclusion) ([10]; 10 mg/kg): therapeutic efficacy; therapeutic efficacy against ticks (active = efficacy ≥80 percent) ([10]; 10 mg/kg oral): active; therapeutic efficacy against ticks (active = efficacy ≥80 percent) ([10]; 10 mg/kg topical spot-on): active; inhibition at 0.1 µM ([1]; 100 nM in seawater): 100%; duration of efficacy (last Day with efficacy ≥80 percent) (Rhipicephalus microplus): 87 days; onset of efficacy (first Day with efficacy ≥80 percent) (Rhipicephalus microplus): 1 days; activity against tick nymphs (≥80% inhibition, killed+damaged) ([3]; 5 mg/kg oral, after 7 days): activity; activity against tick nymphs (≥80% inhibition, killed+damaged) ([3]; 5 mg/kg oral, after 10 days): activity; activity against tick nymphs (≥80% inhibition, killed+damaged) ([3]; 5 mg/kg oral, after 14 days): activity; effective to control ticks [3, 12]: 100%; activity against bed bugs (≥80% inhibition, killed+damaged) ([5]; 5 mg/kg oral, after 10 days): activity; activity against bed bugs (≥80% inhibition, killed+damaged) ([5]; 5 mg/kg oral, after 14 days): activity; activity against bed bugs (≥80% inhibition, killed+damaged) ([5]; 5 mg/kg oral, after 17 days): activity; activity against bed bugs (≥80% inhibition, killed+damaged) ([5]; 5 mg/kg subcutaneous, after 10 days): activity; activity against bed bugs (≥80% inhibition, killed+damaged) ([5]; 5 mg/kg subcutaneous, after 14 days): activity; activity against bed bugs (≥80% inhibition, killed+damaged) ([5]; 5 mg/kg subcutaneous, after 17 days): activity; effective to control bed bugs [5, 12]: 100%"

# Reference: patent US20240315993A1, “ANTIPARASITIC COMPOUNDS” (Intervet Inc., priority 2021, published 2024)
